Measurements reported in US20010025018A1, “Antimicrobial activity of laccases” (priority 1997, published 2001).

Columns and labels:
[1] = system: Pseudomonas aeruginosa (ATCC10145); test: Bactericidal activity of laccase/enhancer systems, Malthus conductance enumeration of surviving cells; assay type: cell-based; settings: for Bactericidal activity (log(cfu/ml)=the logarithm to the number of killed cells): enhancer 0.1 mM with rPpL or rMtL 3 mg/L, 20 min, approx. 10^4 cfu/ml
Procedure: (§1) Bactericidal activity was evaluated in 0.05 M MES-buffer (2-[N-morpholino]ethanesulfonic acid) (pH 6), which were flushed with air for 5 min before filter sterilisation. The bactericidal activity was determined against Pseudomonas aeruginosa (ATCC10145) and Staphylococcus epidermidis (DSM20042). Cells were grown in Tryptone Soya Broth (Oxoid CM129) at 30° C. for 24 h and diluted in the MES-buffer to a final cell concentration of approximately 10^4 cfu/ml. The cell suspensions were mixed with laccase (3 mg/L) and enhancer (0.1 mM) for 20 min at 40° C. The bactericidal activity was determined by incubation in Malthus. Detection times measured by the Malthus instrument were converted to cfu/ml by a calibration curve. Either direct or indirect Malthus measurements were used when enumerating total survival cells (Malthus Flexi M2060, Malthus Instrument Limited). By the direct measurements, the cell metabolism was determined by conductance measurements in the growth substrate. By the indirect measurements, 3 ml of growth medium was transferred to the outer chamber of the indirect Malthus cells, and 0.5 ml of sterile KOH (0.1 M) was transferred to the inner chamber. The cell suspensions were after enzyme treatment transferred to the outer chamber of the Malthus cell. As cells are growing in the outer chamber they produce CO2 which will dissolve in the KOH in the inner chamber and thereby change the conductance of the KOH. The amount of CO2 formed by the respiring cells surviving the enzyme treatment was used for estimating the number of viable cells. When the conductance change is measurable by the Malthus, a detection time (dt) will be recorded. The dt-s were converted to colony counts by use of a calibration curve relating cfu/ml to dt (Johansen et al. 1995. Journal of Applied Bacteriology 78:297-303, Johansen et al. 1997, Applied and Environmental Microbiology 63:3724-3728).
Antimicrobial activity (i.e. bactericidal activity) of Myceliophthera laccase (rMtL) and methylsyringate (MeS) was determined using a 32 factorial design at pH 6 at 40° C. in MES-buffer as described in example 1, however, a higher cell concentration was used (10^7-10^8 cfu/ml). Tested rMtL levels was 0-2,5-5 mg/L and MeS levels was 0-5-10 mM.
Antimicrobial activity (i.e. bactericidal activity) of Myceliophthera laccase (rMtL) and Polyporus laccase (rPpL) was determined against Staphylococcus epidermidis at pH 6 in MES-buffer as described in example 1, the laccases was used in the concentration of 3 mg/L. Acetosyringon, methylsyringate, ethylsyringate, butylsyringate and laurylsyringate were evaluated as electron-donors in the concentration of 0.2 mM.
Antimicrobial activity of laccases with two enhancers was determined against Pseudomonas aeruginosa (ATCC 10145) and Staphylococcus epidermidis (DSM 20042) at pH 6 as described in example 1. Methylsyringate and acetosyringon was used as enhancers and the laccase was rPpL (1 mg/L) and the antimicrobial activity was determined by use of a 32 factorial experimental design.

[2] = system: Staphylococcus epidermidis (DSM20042); test: as above; assay type: cell-based; settings: for Bactericidal activity (log(cfu/ml)=the logarithm to the number of killed cells): enhancer 0.1 mM with rPpL or rMtL 3 mg/L, 20 min, approx. 10^4 cfu/ml; for Bactericidal activity (log(cfu/ml)=the logarithm to the number of killed cells) / bactericidal activity when combined with laccase / bactericidal activity without laccase / bactericidal activity when combined with Polyporus laccase: pH 6, 40° C.; for bactericidal activity when combined with laccase: laccase (rMtL or rPpL) 3 mg/L; for bactericidal activity when combined with laccase / bactericidal activity without laccase / bactericidal activity when combined with Polyporus laccase: 20 minutes; for bactericidal activity without laccase: no laccase; for bactericidal activity when combined with Polyporus laccase: rPpL 3 mg/L
Procedure: as §1, with “63:3724-3728). […]” for “63:3724-3728).”

| Compound | Bactericidal activity (log(cfu/ml)=the logarithm to the number of killed cells) ([1]; pH 6, 40° C.) | Bactericidal activity (log(cfu/ml)=the logarithm to the number of killed cells) [2] | bactericidal activity when combined with Polyporus laccase ([2]; enhancer 0.2 mM) [%] | further results |
| --- | --- | --- | --- | --- |
| O=C(O)CCN1c2ccccc2Sc2ccccc21 [PPT, reference compound] | None of the other enhancers resulted in bactericidal activity | None of the other enhancers resulted in bactericidal activity |  |  |
| COc1cc(C(C)=O)cc(OC)c1O [acetosyringon] |  |  | 100 | bactericidal activity, comparison of the syringate-compounds as enhancers ([1]; different syringate-compounds with laccase): most bactericidal enhancer; cell reduction ([1]; with rPpL (1 mg/L), pH 6, 40° C.): approximately 1.5 log units; bactericidal activity when combined with laccase ([2]; enhancer 0.2 mM): significantly increased; bactericidal activity without laccase ([2]; enhancer 0.2 mM): did also show bactericidal activity; bactericidal activity with Myceliophthera laccase ([2]; enhancer 0.2 mM, rMtL 3 mg/L, pH 6, compared to Polyporus laccase and to the other syringate compounds): decreased |
| CCCCOC(=O)c1cc(OC)c(O)c(OC)c1 [butylsyringate] |  |  | 100 |  |
| O=C(/C=C/c1ccc(O)c(O)c1)O[C@@H]1C[C@](O)(C(=O)O)C[C@@H](O)[C@H]1O [chlorogenic acid, reference compound] | None of the other enhancers resulted in bactericidal activity | None of the other enhancers resulted in bactericidal activity |  |  |
| O=C(O)C=Cc1ccccc1 [cinnamic acid, reference compound] | None of the other enhancers resulted in bactericidal activity | None of the other enhancers resulted in bactericidal activity |  |  |
| CCOC(=O)c1cc(OC)c(O)c(OC)c1 [ethylsyringate] |  |  | 100 |  |
| CCCCCCCCCCCCOC(=O)c1cc(OC)c(O)c(OC)c1 [laurylsyringate] |  |  |  | bactericidal activity when combined with laccase ([2]; enhancer 0.2 mM): significantly increased; bactericidal activity without laccase ([2]; enhancer 0.2 mM): did also show bactericidal activity |
| COc1cc(C=O)cc(OC)c1O [syringaldehyde] | None of the other enhancers resulted in bactericidal activity | None of the other enhancers resulted in bactericidal activity |  |  |
